According to patent publication US8916565B2, “Pyrrolopyrazine-spirocyclic piperidine amides as modulators of ion channels” (priority 2011, dated 2014):

Molecular target: human NaV subtype, like NaV 1.7 (Homo sapiens, UniProt Q15858)
Assay: E-VIPR optical membrane potential assay with electrical stimulation
Format: cell-based
Conditions: active against one or more sodium channels; Table 3 does not name the assay or NaV subtype; read-out: Binned Activity Data (IC50)

Chain of human NaV subtype, like NaV 1.7 (Q15858 whole entry): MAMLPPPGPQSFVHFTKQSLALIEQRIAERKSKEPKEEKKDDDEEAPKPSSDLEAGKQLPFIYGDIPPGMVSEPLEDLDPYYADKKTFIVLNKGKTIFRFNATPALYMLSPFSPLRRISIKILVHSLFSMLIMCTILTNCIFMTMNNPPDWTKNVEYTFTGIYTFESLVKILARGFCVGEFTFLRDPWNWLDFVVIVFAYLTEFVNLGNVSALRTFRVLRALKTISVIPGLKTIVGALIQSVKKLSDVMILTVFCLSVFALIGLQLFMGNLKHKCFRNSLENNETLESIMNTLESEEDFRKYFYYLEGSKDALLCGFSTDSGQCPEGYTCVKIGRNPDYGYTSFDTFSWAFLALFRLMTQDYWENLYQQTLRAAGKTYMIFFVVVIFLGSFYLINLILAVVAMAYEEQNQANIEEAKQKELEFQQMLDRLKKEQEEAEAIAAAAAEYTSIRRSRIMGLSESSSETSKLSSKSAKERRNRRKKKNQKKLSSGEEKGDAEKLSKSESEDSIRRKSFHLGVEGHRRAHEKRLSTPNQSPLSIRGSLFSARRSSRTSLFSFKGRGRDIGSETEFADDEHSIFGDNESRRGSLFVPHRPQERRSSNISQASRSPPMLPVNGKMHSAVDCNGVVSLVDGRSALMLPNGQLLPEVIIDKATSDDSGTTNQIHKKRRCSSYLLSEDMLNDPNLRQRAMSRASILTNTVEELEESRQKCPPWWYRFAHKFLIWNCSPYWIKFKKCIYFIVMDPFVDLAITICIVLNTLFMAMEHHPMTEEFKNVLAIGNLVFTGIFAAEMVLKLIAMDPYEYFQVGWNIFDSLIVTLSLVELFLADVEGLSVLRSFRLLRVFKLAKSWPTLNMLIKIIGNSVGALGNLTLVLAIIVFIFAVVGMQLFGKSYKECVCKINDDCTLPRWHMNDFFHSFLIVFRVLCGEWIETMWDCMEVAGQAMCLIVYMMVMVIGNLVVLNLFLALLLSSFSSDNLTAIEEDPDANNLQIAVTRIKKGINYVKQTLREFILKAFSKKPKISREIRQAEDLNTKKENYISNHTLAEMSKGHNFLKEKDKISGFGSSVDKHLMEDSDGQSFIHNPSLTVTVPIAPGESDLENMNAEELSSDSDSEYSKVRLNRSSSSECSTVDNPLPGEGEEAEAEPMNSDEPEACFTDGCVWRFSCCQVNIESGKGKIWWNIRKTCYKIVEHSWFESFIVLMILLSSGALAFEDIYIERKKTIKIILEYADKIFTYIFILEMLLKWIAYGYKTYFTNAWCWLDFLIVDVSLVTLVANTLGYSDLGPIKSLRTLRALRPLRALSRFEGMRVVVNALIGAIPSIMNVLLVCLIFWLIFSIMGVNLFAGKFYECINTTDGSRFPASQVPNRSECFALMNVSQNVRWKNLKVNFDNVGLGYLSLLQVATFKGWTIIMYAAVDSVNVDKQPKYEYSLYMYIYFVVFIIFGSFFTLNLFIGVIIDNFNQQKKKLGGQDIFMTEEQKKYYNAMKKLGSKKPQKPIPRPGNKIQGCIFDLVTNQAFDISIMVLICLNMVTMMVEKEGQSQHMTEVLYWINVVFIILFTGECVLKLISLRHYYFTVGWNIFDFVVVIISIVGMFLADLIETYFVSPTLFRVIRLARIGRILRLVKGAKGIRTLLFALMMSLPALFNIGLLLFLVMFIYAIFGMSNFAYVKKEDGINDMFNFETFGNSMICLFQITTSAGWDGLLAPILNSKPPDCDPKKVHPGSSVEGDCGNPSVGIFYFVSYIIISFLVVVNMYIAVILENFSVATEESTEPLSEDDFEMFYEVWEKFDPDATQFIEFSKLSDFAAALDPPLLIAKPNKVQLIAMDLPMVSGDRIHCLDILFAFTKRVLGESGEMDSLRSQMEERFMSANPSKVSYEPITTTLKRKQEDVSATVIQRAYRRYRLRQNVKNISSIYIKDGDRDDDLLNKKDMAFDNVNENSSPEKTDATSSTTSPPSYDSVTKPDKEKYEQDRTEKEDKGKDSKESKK

| SMILES | IC50 [nM] |
| --- | --- |
| CC(C)Oc1ccc(C(=O)N2CCC3(CC2)NC(C)(C)Cn2c(C(F)(F)F)ccc23)cc1F [Compound 655] | ≤ 2000 |
| CC(C)Oc1ccc(C(=O)N2CCC3(CC2)c2ccc(C(=O)C4(C)CC4)n2CCN3C)cc1CO [Compound 656] | ≤ 2000 |
| Cc1cc(C(=O)N2CCC3(CC2)c2c(Cl)cc(C(F)(F)F)n2CCN3C)ncc1OC(C)C [Compound 657] | ≤ 2000 |
| Cc1cc(C(=O)N2CCC3(CC2)c2ccc(C(F)(F)F)n2CCN3C)ccc1C1COC1 [Compound 658] | ≤ 2000 |
| CN1CCn2c(C(F)(F)F)ccc2C12CCN(C(=O)c1ccc(-c3ccccc3)cc1)CC2 [Compound 659] | > 5000 |
| CCN(C)c1cc(C)nc2c(C(=O)N3CCC4(CC3)c3ccc(C(F)(F)F)n3CCN4C)cnn12 [Compound 660] | ≤ 2000 |
| CC(C)CCOc1ccc(C(=O)N2CCC3(CC2)c2ccc(C(=O)C(C)(C)C)n2CCN3C)cc1 [Compound 661] | ≤ 2000 |
| COCCN1CCn2c(C(F)(F)F)ccc2C12CCN(C(=O)c1ccccc1OC(F)(F)F)CC2 [Compound 662] | ≤ 2000 |
| COc1ccc(C(=O)N2CCC3(CC2)c2ccc(C(=O)C(F)(F)F)n2CCN3C)cc1C [Compound 663] | ≤ 2000 |
| CC(C)Oc1ccc(C(=O)N2CCC3(CC2)c2ccc(C(F)(F)C(F)(F)F)n2CCN3C)cc1Cl [Compound 664] | ≤ 2000 |
| CC(=O)c1ccc2n1CCN(C)C21CCN(C(=O)c2ccc(COc3ccccc3)cc2)CC1 [Compound 665] | ≤ 2000 |
| CN1CCn2c(C(F)(F)F)cc(F)c2C12CCN(C(=O)c1ccc(S(=O)(=O)NC3CC3)cc1)CC2 [Compound 666] | ≤ 2000 |
| COc1cc(C(=O)N2CCC3(CC2)NC(C)(C)Cn2c(C(F)(F)F)ccc23)ccc1OC(C)(C)C [Compound 667] | ≤ 2000 |
| CCc1ccc(C(=O)N2CCC3(CC2)c2c(F)cc(C(F)(F)F)n2CCN3C)cc1OC [Compound 668] | ≤ 2000 |
| C[C@H]1Cn2c(C(=O)C(F)(F)F)ccc2C2(CCN(C(=O)c3ccc(S(=O)(=O)NC4CC4)cc3)CC2)N1C [Compound 669] | ≤ 2000 |
| CN1CCn2c(Cl)ccc2C12CCN(C(=O)c1ccc(S(=O)(=O)C(F)F)cc1)CC2 [Compound 670] | > 5000 |
| CCCN(CCC)S(=O)(=O)c1ccc(C(=O)N2CCC3(CC2)c2ccc(C(=O)C(F)(F)F)n2CCN3C)cc1 [Compound 671] | ≤ 2000 |
| Cc1cc(C(=O)N2CCC3(CC2)c2c(F)cc(C(F)(F)F)n2CCN3C)ccc1OC(C)C [Compound 672] | ≤ 2000 |
| Cc1cc(C)n2ncc(C(=O)N3CCC4(CC3)c3ccc(C(F)(F)F)n3CCN4C)c2n1 [Compound 673] | ≤ 2000 |
| CC(C)Oc1ccc(C(=O)N2CCC3(CC2)c2ccc(C(=O)C(C)C)n2CCN3C)cc1Cl [Compound 674] | ≤ 2000 |
| COc1c(C)cccc1C(=O)N1CCC2(CC1)c1ccc(C(=O)C(F)(F)F)n1C[C@H](C)N2C [Compound 675] | ≤ 2000 |
| CC(C)Oc1ccc(C(=O)N2CCC3(CC2)c2ccc(C(=O)C(F)(F)F)n2CCN3C)cc1C(F)(F)F [Compound 676] | ≤ 2000 |
| COc1cc(C(=O)N2CCC3(CC2)c2ccc(C(F)(F)F)n2C[C@@H](C)N3C)ccc1OC(C)C [Compound 677] | > 5000 |
| CC(C)Oc1ccc(C(=O)N2CCC3(CC2)c2ccc(Cl)n2CCN3C)cc1CO [Compound 678] | 2000 to 5000 |
| CN1CCn2c(Cl)ccc2C12CCN(C(=O)c1cccc3cccnc13)CC2 [Compound 679] | 2000 to 5000 |

| SMILES | IC50 [nM] |
| --- | --- |
| CN1CCn2c(C(=O)C(C)(C)C)ccc2C12CCN(C(=O)c1ccc(S(=O)(=O)C(C)(C)C)cc1)CC2 [Compound 680] | ≤ 2000 |
| CC(=O)c1ccc2n1CCN(C)C21CCN(C(=O)c2ccc(OCC(C)(C)O)c(C)c2)CC1 [Compound 681] | 2000 to 5000 |
| Cc1cc(C(=O)N2CCC3(CC2)c2ccc(C(=O)C(C)(C)C)n2CCN3C)ccc1S(C)(=O)=O [Compound 682] | > 5000 |
| COC(=O)N1CCn2c(C(F)(F)F)ccc2C12CCN(C(=O)c1ccc(C(C)(C)O)c(C)c1)CC2 [Compound 683] | ≤ 2000 |
| CCN(CC)c1ncccc1C(=O)N1CCC2(CC1)c1ccc(C(F)(F)F)n1CCN2C [Compound 684] | > 5000 |
| CN1CCn2c(C(=O)C3(C)CC3)ccc2C12CCN(C(=O)c1ccc(O)c(C(F)(F)F)c1)CC2 [Compound 685] | ≤ 2000 |
| COc1cc(C(=O)N2CCC3(CC2)NC(C)(C)Cn2c(C(=O)C(F)(F)F)ccc23)ccc1OCCC(C)C [Compound 686] | ≤ 2000 |
| COc1cc(C(=O)N2CCC3(CC2)c2c(Cl)cc(C(F)(F)F)n2CCN3C)ccc1COCC(F)(F)F [Compound 687] | ≤ 2000 |
| CN1CCn2c(C(=O)C(F)(F)F)ccc2C12CCN(C(=O)c1ccc(CC(C)(C)O)cc1)CC2 [Compound 688] | ≤ 2000 |
| CN1CCn2c(C(=O)C3(C)CC3)ccc2C12CCN(C(=O)c1ccc(S(=O)(=O)C(C)(C)C)cc1)CC2 [Compound 689] | > 5000 |
| COc1cc(C(=O)N2CCC3(CC2)c2ccc(C(F)(F)F)n2CCN3C2CC2)ccc1OC(C)C [Compound 690] | ≤ 2000 |
| CC(=O)c1ccc2n1CCN(C)C21CCN(C(=O)c2ccc(OC(C)C)c(C)n2)CC1 [Compound 691] | ≤ 2000 |
| CC1Cn2c(C(F)(F)F)ccc2C2(CCN(C(=O)c3ccc(OC(C)C)c(F)c3)CC2)N1 (stereo not shown) [Compound 692] | ≤ 2000 |
| COc1ccc(C(=O)N2CCC3(CC2)c2ccc(C(=O)c4ccccc4)n2CCN3C)cc1C [Compound 694] | 2000 to 5000 |
| CC(C)Oc1ccc(C(=O)N2CCC3(CC2)c2ccc(C(=O)C(F)(F)F)n2C[C@H](C)N3C)c(F)c1 [Compound 695] | ≤ 2000 |
| CC(C)Oc1ccc(C(=O)N2CCC3(CC2)c2ccc(Cl)n2CCN3C)cc1 [Compound 696] | > 5000 |
| COc1ccc(C(=O)N2CCC3(CC2)c2ccc(C(=O)C(F)(F)F)n2CCN3C)cc1Cl [Compound 697] | ≤ 2000 |
| CCCOc1ccc(C(=O)N2CCC3(CC2)c2ccc(Cl)n2CCN3C)cc1OC [Compound 698] | 2000 to 5000 |
| CCCCOc1ccc(C(=O)N2CCC3(CC2)c2ccc(C(C)=O)n2CCN3C)cc1OC [Compound 699] | ≤ 2000 |
| C[C@H]1Cn2c(C(=O)C(F)(F)F)ccc2C2(CCN(C(=O)c3ccc(O)c(Cl)c3)CC2)N1C [Compound 700] | ≤ 2000 |
| COCCN1CCn2c(C(F)(F)F)ccc2C12CCN(C(=O)c1ccc(C(C)(C)O)cc1)CC2 [Compound 701] | ≤ 2000 |
| C[C@H]1Cn2c(C(=O)C(F)(F)F)ccc2C2(CCN(C(=O)c3ccc(S(=O)(=O)C4CC4)cc3)CC2)N1C [Compound 702] | ≤ 2000 |
| CC(=O)c1ccc2n1CCN(C)C21CCN(C(=O)c2ccc(C(C)(C)O)c(F)c2)CC1 [Compound 703] | > 5000 |
| CCC(=O)c1ccc2n1CCN(C)C21CCN(C(=O)c2ccc(OC(C)C)c(C)c2)CC1 [Compound 704] | ≤ 2000 |
| COc1cc(C(=O)N2CCC3(CC2)NC(C)(C)Cn2c(C(=O)C(F)(F)F)ccc23)ccc1C(C)(C)C [Compound 705] | ≤ 2000 |

| SMILES | IC50 [nM] |
| --- | --- |
| COc1cc(C(=O)N2CCC3(CC2)c2ccc(C(F)(F)F)n2CCN3CC(F)F)ccc1OC(C)C [Compound 706] | ≤ 2000 |
| CC1(C)Cn2c(C(=O)C(F)(F)F)ccc2C2(CCN(C(=O)c3ccc(-c4ccccc4)cn3)CC2)N1 [Compound 707] | ≤ 2000 |
| O=C(c1ccc(S(=O)(=O)NC2CC2)cc1)N1CCC2(CC1)c1ccc(C(F)(F)F)n1CCN2C1CC1 [Compound 708] | ≤ 2000 |
| CC(C)Oc1ccc(C(=O)N2CCC3(CC2)c2ccc(C(F)(F)F)n2CCN3C)cc1CO [Compound 709] | ≤ 2000 |
| Cc1cc(C(=O)N2CCC3(CC2)c2ccc(Cl)n2CCN3C)ccc1OC(C)C [Compound 710] | ≤ 2000 |
| Cc1cc(C(=O)N2CCC3(CC2)c2ccc(C(=O)C(C)(C)C)n2CCN3C)ccc1OCCCO [Compound 711] | ≤ 2000 |
| CC(C)COc1ccc(C(=O)N2CCC3(CC2)c2ccc(C(=O)C(F)(F)F)n2CCN3C)nc1 [Compound 712] | ≤ 2000 |
| COc1ccc(C(=O)N2CCC3(CC2)c2c(Cl)cc(C(F)(F)F)n2CCN3C)cc1C [Compound 713] | 2000 to 5000 |
| Cc1c(O)cccc1C(=O)N1CCC2(CC1)c1ccc(C(=O)C(F)(F)F)n1CCN2C [Compound 714] | > 5000 |
| Cc1cc(C(=O)N2CCC3(CC2)NCCn2c(C(F)(F)F)ccc23)ccc1C(C)(C)O [Compound 715] | ≤ 2000 |
| CNS(=O)(=O)c1ccc(C(=O)N2CCC3(CC2)c2ccc(C(F)(F)F)n2CCN3C)cc1 [Compound 716] | ≤ 2000 |
| CN1CCn2c(C(=O)C(F)(F)F)ccc2C12CCN(C(=O)c1ccc(-c3ccccc3)c(F)c1)CC2 [Compound 717] | ≤ 2000 |
| CC(C)Nc1ncccc1C(=O)N1CCC2(CC1)c1ccc(C(F)(F)F)n1CCN2C [Compound 718] | 2000 to 5000 |
| COc1cc(C(=O)N2CCC3(CC2)c2ccc(C(F)(F)F)n2C(CO)CN3C)ccc1OC(C)C (stereo not shown) [Compound 719] | 2000 to 5000 |
| CN1CCn2c(C(=O)C(F)(F)F)ccc2C12CCN(C(=O)c1ccc(F)c(O)c1)CC2 [Compound 720] | > 5000 |
| CC(C)Oc1ccc(C(=O)N2CCC3(CC2)NC(C)(C)Cn2c(C(F)(F)F)ccc23)c(F)c1 [Compound 721] | ≤ 2000 |
| COc1cc(C(=O)N2CCC3(CC2)c2ccc(C(F)(F)C(F)(F)F)n2CCN3C)ccc1OC(C)C [Compound 722] | ≤ 2000 |
| Cc1cc(C(=O)N2CCC3(CC2)c2ccc(C(F)(F)F)n2CCN3CC(=O)N(C)C)ccc1OC(C)C [Compound 723] | ≤ 2000 |
| CN1CCn2c(C(=O)C(F)(F)F)ccc2C12CCN(C(=O)c1ccc(-c3ccccc3F)cn1)CC2 [Compound 725] | > 5000 |
| COc1ccc(C(=O)N2CCC3(CC2)c2ccc(C(=O)C(F)(F)F)n2C[C@H](C)N3C)cc1C(F)(F)F [Compound 726] | ≤ 2000 |
| CC[C@@H](C)Oc1ccc(C(=O)N2CCC3(CC2)c2ccc(C(F)(F)F)n2CCN3C)cc1OC [Compound 727] | ≤ 2000 |
| COc1ccc(-c2ccc(C(=O)N3CCC4(CC3)c3ccc(C(=O)C(F)(F)F)n3CCN4C)cc2C)cc1 [Compound 728] | ≤ 2000 |
| CCOC(=O)N1CCn2c(C#N)ccc2C12CCN(C(=O)c1ccc(OC(C)C)c(C)n1)CC2 [Compound 729] | ≤ 2000 |
